Values quoted from earlier work, collected in US11877993B1, “Gamma-hydroxybutyrate salts for the treatment of psychological disorders” (priority 2021, dated 2024).

Tested on: patients with severe PTSD
Conditions: MDMA-assisted therapy

## CNC(C)Cc1ccc2c(c1)OCO2 (stereo not drawn) [MDMA, 3,4-methylenedioxymethamphetamine]
Individuals with severe PTSD, even with comorbidities
  Tolerability: well-tolerated
Severe PTSD, P<0.0001
  Attenuation in CAPS-5 score compared with placebo, effect size d: 0.91
Severe PTSD, P=0.0116
  Decrease of SDS total score, effect size d: 0.43
